Measurements published in ChEMBL document CHEMBL1137237, “Identification of isothiazole-4-carboxamidines derivatives as a novel class of allosteric MEK1 inhibitors” (Bioorg Med Chem Lett, 2006).

Key:
[1] = AUC following oral dose; type: ADME, organism-based; conditions: rat, plasma
[2] = AUC following intravenous dose; type: ADME, organism-based; conditions: rat, plasma
Aurora kinase A = target: T1, Aurora kinase A (Homo sapiens, UniProt O14965); experiment: Inhibition of Aurora
T1 sequence (O14965 whole entry): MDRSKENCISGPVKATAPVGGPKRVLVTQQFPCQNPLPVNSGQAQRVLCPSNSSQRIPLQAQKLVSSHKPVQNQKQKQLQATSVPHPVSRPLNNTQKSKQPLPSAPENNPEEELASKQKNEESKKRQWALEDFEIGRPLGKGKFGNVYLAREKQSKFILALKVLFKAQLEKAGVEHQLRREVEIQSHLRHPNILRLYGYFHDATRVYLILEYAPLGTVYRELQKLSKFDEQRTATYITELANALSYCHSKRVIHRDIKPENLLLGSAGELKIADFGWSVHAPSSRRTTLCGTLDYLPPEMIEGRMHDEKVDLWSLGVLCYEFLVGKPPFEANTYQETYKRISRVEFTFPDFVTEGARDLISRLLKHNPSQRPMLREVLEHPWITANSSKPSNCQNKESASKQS

[3] = target: T2, Dual specificity mitogen-activated protein kinase kinase 1 (Homo sapiens, UniProt Q02750); experiment: Inhibitory activity against MEK-1; type: functional
T2 sequence (Q02750 whole entry): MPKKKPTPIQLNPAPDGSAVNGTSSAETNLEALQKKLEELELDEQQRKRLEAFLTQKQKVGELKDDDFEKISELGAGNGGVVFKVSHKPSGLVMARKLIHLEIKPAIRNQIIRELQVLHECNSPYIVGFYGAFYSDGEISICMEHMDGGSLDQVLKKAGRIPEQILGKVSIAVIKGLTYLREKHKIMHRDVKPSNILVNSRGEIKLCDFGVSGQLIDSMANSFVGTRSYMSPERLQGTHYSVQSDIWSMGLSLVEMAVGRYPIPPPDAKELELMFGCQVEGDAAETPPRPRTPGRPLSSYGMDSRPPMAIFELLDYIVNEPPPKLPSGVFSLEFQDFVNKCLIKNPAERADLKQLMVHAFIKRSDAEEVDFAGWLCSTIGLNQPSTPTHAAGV

[4] = target: Serine/threonine-protein kinase Chk2 (Homo sapiens, UniProt O96017); experiment: Inhibition of CHK2
Serine/threonine-protein kinase Chk2, sequence (O96017 whole entry): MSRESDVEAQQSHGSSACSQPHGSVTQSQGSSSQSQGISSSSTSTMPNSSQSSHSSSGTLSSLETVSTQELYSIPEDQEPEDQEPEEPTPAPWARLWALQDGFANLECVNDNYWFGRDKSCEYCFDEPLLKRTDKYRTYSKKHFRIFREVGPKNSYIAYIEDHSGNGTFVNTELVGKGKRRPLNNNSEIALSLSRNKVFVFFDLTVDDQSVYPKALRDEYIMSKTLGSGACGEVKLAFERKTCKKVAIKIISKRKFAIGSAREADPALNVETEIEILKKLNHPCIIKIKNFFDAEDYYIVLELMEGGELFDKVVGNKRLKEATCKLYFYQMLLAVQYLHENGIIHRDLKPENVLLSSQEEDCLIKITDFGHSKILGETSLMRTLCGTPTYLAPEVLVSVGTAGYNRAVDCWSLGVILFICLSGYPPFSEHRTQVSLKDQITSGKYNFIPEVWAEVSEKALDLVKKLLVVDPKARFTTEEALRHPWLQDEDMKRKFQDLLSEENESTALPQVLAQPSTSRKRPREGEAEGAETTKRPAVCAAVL

[5] = target: Ribosomal protein S6 kinase (P70S6K) (Homo sapiens, UniProt P23443+Q9UBS0); experiment: Inhibition of p70 S6 kinase; type: protein-complex assay
Ribosomal protein S6 kinase (P70S6K), sequence (Q9UBS0 whole entry): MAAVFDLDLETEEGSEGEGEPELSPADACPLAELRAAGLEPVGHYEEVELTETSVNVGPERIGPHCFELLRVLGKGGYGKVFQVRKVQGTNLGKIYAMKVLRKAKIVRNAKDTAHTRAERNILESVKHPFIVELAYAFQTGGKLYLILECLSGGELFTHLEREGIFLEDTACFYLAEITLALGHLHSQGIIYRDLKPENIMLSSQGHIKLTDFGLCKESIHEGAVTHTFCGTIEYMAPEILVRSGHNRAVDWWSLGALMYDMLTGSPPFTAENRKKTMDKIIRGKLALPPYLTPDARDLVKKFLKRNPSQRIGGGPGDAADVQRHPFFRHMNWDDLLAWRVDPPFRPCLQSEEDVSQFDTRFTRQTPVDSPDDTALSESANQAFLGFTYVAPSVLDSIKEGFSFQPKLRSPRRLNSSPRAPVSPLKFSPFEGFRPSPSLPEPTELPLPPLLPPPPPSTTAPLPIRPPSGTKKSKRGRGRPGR
Ribosomal protein S6 kinase (P70S6K), sequence (P23443 whole entry): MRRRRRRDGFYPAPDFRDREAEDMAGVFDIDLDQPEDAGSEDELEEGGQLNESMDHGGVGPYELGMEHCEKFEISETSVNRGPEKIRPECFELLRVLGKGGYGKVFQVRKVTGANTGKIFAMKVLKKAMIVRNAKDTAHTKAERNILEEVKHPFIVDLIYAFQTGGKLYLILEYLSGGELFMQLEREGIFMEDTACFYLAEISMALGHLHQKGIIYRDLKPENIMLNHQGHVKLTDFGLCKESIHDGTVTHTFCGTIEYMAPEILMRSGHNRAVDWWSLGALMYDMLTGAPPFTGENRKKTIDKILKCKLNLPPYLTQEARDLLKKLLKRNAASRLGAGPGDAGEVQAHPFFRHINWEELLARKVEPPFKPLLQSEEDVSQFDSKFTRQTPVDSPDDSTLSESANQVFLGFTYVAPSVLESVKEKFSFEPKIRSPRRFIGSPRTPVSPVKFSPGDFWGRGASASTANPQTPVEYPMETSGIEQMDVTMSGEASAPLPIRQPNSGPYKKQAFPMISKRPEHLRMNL

[6] = target: T3, Tyrosine-protein kinase receptor UFO (Homo sapiens, UniProt P30530); experiment: Inhibition of Axl
T3 sequence (P30530 whole entry): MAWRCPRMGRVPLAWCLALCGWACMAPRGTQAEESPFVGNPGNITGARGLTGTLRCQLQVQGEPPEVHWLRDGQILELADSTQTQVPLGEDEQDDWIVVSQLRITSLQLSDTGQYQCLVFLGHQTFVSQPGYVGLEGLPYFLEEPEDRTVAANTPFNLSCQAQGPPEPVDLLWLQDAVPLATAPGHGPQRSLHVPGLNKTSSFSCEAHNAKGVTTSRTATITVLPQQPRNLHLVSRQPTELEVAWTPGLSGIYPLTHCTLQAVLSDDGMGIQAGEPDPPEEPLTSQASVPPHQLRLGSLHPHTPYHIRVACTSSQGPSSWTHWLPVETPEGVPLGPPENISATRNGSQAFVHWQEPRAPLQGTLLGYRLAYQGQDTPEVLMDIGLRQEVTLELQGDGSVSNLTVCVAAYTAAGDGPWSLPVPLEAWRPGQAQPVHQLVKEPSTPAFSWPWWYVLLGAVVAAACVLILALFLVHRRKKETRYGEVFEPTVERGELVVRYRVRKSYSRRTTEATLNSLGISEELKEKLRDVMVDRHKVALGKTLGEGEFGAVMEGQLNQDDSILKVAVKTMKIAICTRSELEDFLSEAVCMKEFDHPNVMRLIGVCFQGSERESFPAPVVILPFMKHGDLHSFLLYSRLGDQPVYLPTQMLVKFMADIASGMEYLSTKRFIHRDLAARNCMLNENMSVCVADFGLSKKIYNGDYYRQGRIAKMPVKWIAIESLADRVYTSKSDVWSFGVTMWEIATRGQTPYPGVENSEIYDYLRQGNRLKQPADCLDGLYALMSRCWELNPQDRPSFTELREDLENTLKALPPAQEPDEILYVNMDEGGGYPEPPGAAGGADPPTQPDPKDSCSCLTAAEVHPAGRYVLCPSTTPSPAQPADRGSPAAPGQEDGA

[7] = target: T2, Dual specificity mitogen-activated protein kinase kinase 1; experiment: Inhibition of MEK-1 activity
[8] = target: T2, Dual specificity mitogen-activated protein kinase kinase 1; experiment: Inhibition of MEK-1
[9] = target: T4, Receptor-type tyrosine-protein kinase FLT3 (Homo sapiens, UniProt P36888); experiment: Inhibition of Flt-3
T4 sequence (P36888 whole entry): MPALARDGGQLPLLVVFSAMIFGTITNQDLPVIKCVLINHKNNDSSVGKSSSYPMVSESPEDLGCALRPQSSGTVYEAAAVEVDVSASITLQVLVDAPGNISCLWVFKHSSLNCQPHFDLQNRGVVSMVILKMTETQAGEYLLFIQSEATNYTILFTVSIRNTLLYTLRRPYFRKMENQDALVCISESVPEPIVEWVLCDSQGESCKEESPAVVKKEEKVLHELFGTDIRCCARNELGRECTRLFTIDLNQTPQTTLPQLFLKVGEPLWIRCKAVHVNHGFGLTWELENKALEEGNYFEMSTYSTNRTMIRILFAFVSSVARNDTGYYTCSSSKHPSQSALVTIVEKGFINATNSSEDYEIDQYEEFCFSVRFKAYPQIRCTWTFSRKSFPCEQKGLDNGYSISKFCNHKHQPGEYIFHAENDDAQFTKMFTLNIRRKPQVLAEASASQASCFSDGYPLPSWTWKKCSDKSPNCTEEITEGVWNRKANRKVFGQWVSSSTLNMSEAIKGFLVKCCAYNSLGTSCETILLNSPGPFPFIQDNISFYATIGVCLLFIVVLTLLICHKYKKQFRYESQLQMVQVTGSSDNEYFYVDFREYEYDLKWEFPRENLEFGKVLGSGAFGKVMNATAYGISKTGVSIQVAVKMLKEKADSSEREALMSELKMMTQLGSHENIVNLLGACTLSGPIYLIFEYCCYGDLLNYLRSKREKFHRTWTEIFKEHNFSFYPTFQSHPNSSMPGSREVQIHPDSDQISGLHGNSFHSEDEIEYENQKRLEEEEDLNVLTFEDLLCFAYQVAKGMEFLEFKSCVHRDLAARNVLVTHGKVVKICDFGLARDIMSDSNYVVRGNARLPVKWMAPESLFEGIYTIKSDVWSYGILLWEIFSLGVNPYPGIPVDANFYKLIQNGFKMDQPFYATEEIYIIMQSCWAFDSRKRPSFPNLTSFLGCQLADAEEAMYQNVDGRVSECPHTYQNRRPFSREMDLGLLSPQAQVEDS

Row | AUC [1] | Structure (SMILES) | other results
1 | 4280 ng·h/mL | CC(CO)NC(=N)c1c(O)nsc1Nc1ccc(Oc2cccc(Cl)c2Cl)c(Cl)c1 (stereo not given) | –
2 | 2880 ng·h/mL | N/C(=N\N1CCOCC1)c1c(O)nsc1Nc1ccc(Oc2cc(Cl)ccc2Cl)cc1 | –
3 | 20300 ng·h/mL | CC(CO)/N=C(\N)c1c(O)nsc1Nc1ccc(Oc2cc(F)cc(F)c2Cl)cc1 (stereo not given) | –
4 | 31300 ng·h/mL | CC(CO)N=C(N)c1c(Nc2ccc(Oc3cc(C(F)(F)F)ccc3F)cc2)s[nH]c1=O (stereo not given) | –
5 | 6260 ng·h/mL | CC(CO)/N=C(\N)c1c(O)nsc1Nc1ccc(Oc2ccc(F)cc2Cl)cc1 (stereo not given) | –
6 | 47400 ng·h/mL | CC(CO)N=C(N)c1c(Nc2ccc(Oc3cc(Cl)ccc3Cl)cc2)s[nH]c1=O (stereo not given) | –
7 | 5100 ng·h/mL | NC(=NC(CO)CO)c1c(Nc2ccc(Oc3cc(Cl)ccc3Cl)cc2)s[nH]c1=O | –
8 | 21900 ng·h/mL | CC(CO)N=C(N)c1c(Nc2ccc(Oc3cc(C(F)(F)F)ccc3Cl)cc2)s[nH]c1=O (stereo not given) | –
9 | 87 ng·h/mL | N/C(=N\CCN1CCNC(=O)C1)c1c(O)nsc1Nc1ccc(Oc2cc(Cl)ccc2Cl)cc1 | –
10 | 20400 ng·h/mL | CC(CO)NC(=N)c1c(O)nsc1Nc1ccc(Oc2cccc(C(F)(F)F)c2Cl)cc1 (stereo not given) | –
11 | 9430 ng·h/mL | CC(CO)NC(=N)c1c(O)nsc1Nc1ccc(Oc2cccc(F)c2F)cc1 (stereo not given) | –
12 | 4250 ng·h/mL | CC(CO)N=C(N)c1c(Nc2ccc(S(=O)(=O)c3ccccc3)cc2)s[nH]c1=O (stereo not given) | AUC [2]: 8540 ng·h/mL
13 | 1140 ng·h/mL | CC(CO)/N=C(\N)c1c(O)nsc1Nc1ccc(Oc2ccccc2)cc1 (stereo not given) | IC50 (Aurora kinase A): 0.26 µM; EC50 [3]: 0.042 µM; IC50 [4]: 0.142 µM; IC50 [5]: 2.62 µM; AUC [2]: 8320 ng·h/mL; IC50 [6]: 0.455 µM; IC50 [7]: 0.033 µM; IC50 [8]: 0.026 µM; IC50 [9]: 0.795 µM
14 | 900 ng·h/mL | CC(CO)NC(=N)c1c(O)nsc1Nc1ccc(Oc2cc(F)ccc2Cl)cc1 (stereo not given) | –
15 | 1980 ng·h/mL | CN1CCN(N=C(N)c2c(Nc3ccc(Oc4cc(Cl)ccc4Cl)cc3)s[nH]c2=O)CC1 | –
16 | 26200 ng·h/mL | CC(CO)NC(=N)c1c(O)nsc1Nc1ccc(Oc2ccc(Cl)cc2Cl)cc1 (stereo not given) | –
17 | 5140 ng·h/mL | CC(CO)/N=C(\N)c1c(O)nsc1Nc1ccc(Oc2cc(F)cc(F)c2)cc1 (stereo not given) | –
18 | 5260 ng·h/mL | CC(CO)/N=C(\N)c1c(O)nsc1Nc1ccc(Oc2cccc(Cl)c2Cl)cc1 (stereo not given) | –
19 | 425 ng·h/mL | N=C(NCC1CCCO1)c1c(O)nsc1Nc1ccc(Oc2cc(Cl)ccc2Cl)cc1 (stereo not given) | –
20 | 16500 ng·h/mL | CC(CO)/N=C(\N)c1c(O)nsc1Nc1ccc(Oc2ccc(F)cc2F)cc1 (stereo not given) | –
21 | 220 ng·h/mL | CC(CO)/N=C(\N)c1c(O)nsc1Nc1ccc(Cc2ccccc2)cc1 (stereo not given) | AUC [2]: 7250 ng·h/mL
22 | 22400 ng·h/mL | CC(C)C(CO)N=C(N)c1c(Nc2ccc(Oc3cc(Cl)ccc3Cl)cc2)s[nH]c1=O (stereo not given) | –
23 | 2020 ng·h/mL | N=C(NCCC(O)CO)c1c(O)nsc1Nc1ccc(Oc2cc(Cl)ccc2Cl)cc1 (stereo not given) | –
24 | 14600 ng·h/mL | CCC(CO)/N=C(\N)c1c(O)nsc1Nc1ccc(Oc2cc(Cl)ccc2Cl)cc1 (stereo not given) | –

Row | AUC [1] | Structure (SMILES) | other results
25 | 14900 ng·h/mL | CC(CO)/N=C(\N)c1c(O)nsc1Nc1ccc(Oc2cc(F)cc(F)c2Cl)c(F)c1 (stereo not given) | –
26 | 12500 ng·h/mL | NC(=NCC(O)CO)c1c(Nc2ccc(Oc3cc(Cl)ccc3Cl)cc2)s[nH]c1=O (stereo not given) | –
27 | 4500 ng·h/mL | CC(CO)N=C(N)c1c(Nc2ccc(Oc3cccc(C(F)(F)F)c3Cl)c(F)c2)s[nH]c1=O (stereo not given) | –
28 | 12700 ng·h/mL | Cc1cc(Oc2ccc(F)cc2Cl)ccc1Nc1snc(O)c1/C(N)=N/C(C)CO (stereo not given) | –
29 | 12600 ng·h/mL | CC(CO)/N=C(\N)c1c(O)nsc1Nc1ccc(Oc2cccc(Cl)c2F)cc1 (stereo not given) | –
30 | 617 ng·h/mL | N=C(NCCN1CCOCC1)c1c(O)nsc1Nc1ccc(Oc2cc(Cl)ccc2Cl)cc1 | –
31 | 6860 ng·h/mL | NC(=NCCCN1CCOCC1)c1c(Nc2ccc(Oc3cc(Cl)ccc3Cl)cc2)s[nH]c1=O | –
32 | 900 ng·h/mL | CC(CO)N=C(N)c1c(Nc2ccc(Oc3cccc(N(C)C)c3)cc2)s[nH]c1=O (stereo not given) | –
33 | 265 ng·h/mL | CC(CO)N=C(N)c1c(Nc2ccc(Sc3ccccc3)cc2)s[nH]c1=O (stereo not given) | AUC [2]: 6900 ng·h/mL
34 | 23900 ng·h/mL | CC(O)C/N=C(\N)c1c(O)nsc1Nc1ccc(Oc2cc(Cl)ccc2Cl)cc1 (stereo not given) | –
35 | 22200 ng·h/mL | CC(CO)/N=C(\N)c1c(O)nsc1Nc1ccc(Oc2cc(Cl)ccc2Cl)c(F)c1 (stereo not given) | –
36 | 60 ng·h/mL | CC(CO)/N=C(\N)c1c(O)nsc1Nc1ccc(C(=O)c2ccccc2)cc1 (stereo not given) | AUC [2]: 2900 ng·h/mL
37 | 1240 ng·h/mL | CC(CO)NC(=N)c1c(O)nsc1Nc1ccc(Nc2ccccc2)cc1 (stereo not given) | IC50 (Aurora kinase A): 0.265 µM; EC50 [3]: 0.045 µM; IC50 [4]: 0.013 µM; IC50 [5]: 1 µM; AUC [2]: 859 ng·h/mL; IC50 [6]: 0.389 µM; IC50 [7]: 0.24 µM; IC50 [8]: 0.266 µM; IC50 [9]: 0.448 µM
38 | 15400 ng·h/mL | CC(CO)NC(=N)c1c(O)nsc1Nc1ccc(Oc2cc(F)cc(C(F)(F)F)c2)cc1 (stereo not given) | –
39 | 262 ng·h/mL | CN1CCN(CC/N=C(\N)c2c(O)nsc2Nc2ccc(Oc3cc(Cl)ccc3Cl)cc2)CC1 | –
40 | 11700 ng·h/mL | CC(CO)NC(=N)c1c(O)nsc1Nc1ccc(Oc2cc(Cl)cc(Cl)c2)cc1 (stereo not given) | –
41 | 5690 ng·h/mL | CC(CO)N=C(N)c1c(Nc2ccc(Oc3ccc(F)cc3Cl)c(Cl)c2)s[nH]c1=O (stereo not given) | –
42 | 14600 ng·h/mL | NC(=NCCO)c1c(Nc2ccc(Oc3cc(Cl)ccc3Cl)cc2)s[nH]c1=O | –
43 | 2420 ng·h/mL | CN1CCN(CCC/N=C(\N)c2c(O)nsc2Nc2ccc(Oc3cc(Cl)ccc3Cl)cc2)CC1 | –
44 | 28700 ng·h/mL | CC(CO)NC(=N)c1c(O)nsc1Nc1ccc(Oc2cccc(C(F)(F)F)c2)cc1 (stereo not given) | –
45 | 5710 ng·h/mL | CC(CO)NC(=N)c1c(O)nsc1Nc1ccc(Oc2cccc(C(F)(F)F)c2Cl)c(Cl)c1 (stereo not given) | –
46 | 2350 ng·h/mL | CC(CO)/N=C(\N)c1c(O)nsc1Nc1ccc(C(C)(C)c2ccccc2)cc1 (stereo not given) | AUC [2]: 9250 ng·h/mL
47 | 13000 ng·h/mL | CC(CO)N=C(N)c1c(Nc2ccc(Oc3cccc(C(F)(F)F)c3F)cc2)s[nH]c1=O (stereo not given) | –
